From ChEMBL document CHEMBL1201862, “PubChem BioAssay data set” (2004)
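Compound exposure: 48 hours, 5 concentrations, 96-well plates. Abbreviation: GI50, concentration required for 50% inhibition of growth.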 Calls of active or inactive are those of the source. No stated cut-off is given here; in the data, active = GI50 up to about 1.1 µM and inactive = higher.

Columns and labels:
Experiment in all cases: growth of human tumour cells (NCI), 48 h
A498 = tested on: A498
A549 = tested on: A549
ACHN = tested on: ACHN
CCRF-CEM = tested on: CCRF-CEM
COLO 205 = tested on: COLO 205
HCT-116 = tested on: HCT-116
HOP-62 = tested on: HOP-62
KM12 = tested on: KM12
NCI-H23 = tested on: NCI-H23
NCI-H522 = tested on: NCI-H522
OVCAR-4 = tested on: OVCAR-4
RXF 393 = tested on: RXF 393
SF-268 = tested on: SF-268
SK-OV-3 = tested on: SK-OV-3
SN12C = tested on: SN12C
TK-10 = tested on: TK-10
U-251 = tested on: U-251
UACC-257 = tested on: UACC-257
HCT-15 = tested on: HCT-15
MDA-MB-231 = tested on: MDA-MB-231

| Compound | GI50 (A498) | GI50 (A549) | GI50 (ACHN) | GI50 (CCRF-CEM) | GI50 (COLO 205) | GI50 (HCT-116) | GI50 (HOP-62) | GI50 (KM12) | GI50 (NCI-H23) | GI50 (NCI-H522) | GI50 (OVCAR-4) | GI50 (RXF 393) | GI50 (SF-268) | GI50 (SK-OV-3) | GI50 (SN12C) | GI50 (TK-10) | GI50 (U-251) | GI50 (UACC-257) | GI50 (HCT-15) | GI50 (MDA-MB-231) |
| --- | --- | --- | --- | --- | --- | --- | --- | --- | --- | --- | --- | --- | --- | --- | --- | --- | --- | --- | --- | --- |
| c1ccc([P+](CCC[P+](c2ccccc2)(c2ccccc2)c2ccccc2)(c2ccccc2)c2ccccc2)cc1 | 93.5 µM (inactive) | 34 µM (inactive) | > 100 µM (inactive) | 22.4 µM (inactive) | 21.8 µM (inactive) | 20.1 µM (inactive) | 49.3 µM (inactive) | 24.4 µM (inactive) | 25.2 µM (inactive) | 19.5 µM (inactive) | 57 µM (inactive) | 64.4 µM (inactive) | 40.4 µM (inactive) | > 100 µM (inactive) | 33.3 µM (inactive) | 86.7 µM (inactive) | 6.65 µM (inactive) | 24 µM (inactive) |  |  |
| CC(C)OCC1CC(CC(=O)Nc2nncs2)C(=O)O1 (centres undefined) |  | > 100 µM (inactive) | > 100 µM (inactive) | > 100 µM (inactive) | > 100 µM (inactive) | > 100 µM (inactive) | > 100 µM (inactive) | > 100 µM (inactive) | > 100 µM (inactive) |  | > 100 µM (inactive) |  | > 100 µM (inactive) | > 100 µM (inactive) | > 100 µM (inactive) | > 100 µM (inactive) | > 100 µM (inactive) | > 100 µM (inactive) | > 100 µM | > 100 µM (inactive) |
| CNC(=O)c1nnn(Cc2ccccc2)c1S |  | > 100 µM (inactive) | > 100 µM (inactive) | > 100 µM (inactive) | > 100 µM (inactive) | > 100 µM (inactive) | > 100 µM (inactive) | > 100 µM (inactive) | > 100 µM (inactive) |  | > 100 µM (inactive) | > 100 µM (inactive) |  | > 100 µM (inactive) | > 100 µM (inactive) | > 100 µM (inactive) | > 100 µM (inactive) | > 100 µM (inactive) | > 100 µM | > 100 µM (inactive) |
| Clc1ncnc2c1ncn2CCCCCCCCCCCCn1cnc2c(Cl)ncnc21 | 12.2 µM (inactive) | 11.7 µM (inactive) | 14.5 µM (inactive) | 1.36 µM (inactive) | 15.6 µM (inactive) | 10.7 µM (inactive) | 18.6 µM (inactive) | 15.5 µM (inactive) | 2.49 µM (inactive) | 1.48 µM (inactive) | 11.1 µM (inactive) | 16.8 µM (inactive) | 14.3 µM (inactive) | 16.4 µM (inactive) | 18.6 µM (inactive) | 22.1 µM (inactive) | 11.6 µM (inactive) | 2.86 µM (inactive) | 13.1 µM |  |
| CC(C)(c1ccccc1)c1ccc(Oc2ccc(C#N)c(C#N)c2)cc1 | > 10 µM (inactive) | 27 µM (inactive) | 33.8 µM (inactive) | 56.5 µM (inactive) | > 10 µM (inactive) | 36.6 µM (inactive) | > 10 µM (inactive) | > 10 µM (inactive) | 25 µM (inactive) | 9.06 µM (inactive) | 7.82 µM (inactive) | 92.9 µM (inactive) | 43.5 µM (inactive) | > 10 µM (inactive) | > 10 µM (inactive) | > 10 µM (inactive) | 99.8 µM (inactive) | > 10 µM (inactive) | > 10 µM |  |
| Cc1cc(C)nc(NS(=O)(=O)c2ccc(Nc3c4ccc(Cl)cc4nc4c(C(=O)Nc5ccc(S(=O)(=O)N=C(N)N)cc5)cccc34)cc2)n1 | > 100 µM (inactive) |  | 96.6 µM (inactive) | 20.6 µM (inactive) |  | 54.3 µM (inactive) | > 100 µM (inactive) | > 100 µM (inactive) | > 100 µM (inactive) | 34.4 µM (inactive) | > 100 µM (inactive) | 29.4 µM (inactive) | 35.7 µM (inactive) | > 100 µM (inactive) | > 100 µM (inactive) | 98.6 µM (inactive) | 87.5 µM (inactive) | > 100 µM (inactive) | > 100 µM |  |
| CCO/C(CCn1[nH]c(=O)c(Cl)c(Cl)c1=O)=N\NC(=O)C(=O)NN | 82.8 µM (inactive) | > 100 µM (inactive) | > 100 µM (inactive) | > 100 µM (inactive) | > 100 µM (inactive) |  | > 100 µM (inactive) | > 100 µM (inactive) | > 100 µM (inactive) | > 100 µM (inactive) | > 100 µM (inactive) | > 100 µM (inactive) | > 100 µM (inactive) | > 100 µM (inactive) | > 100 µM (inactive) | > 100 µM (inactive) | > 100 µM (inactive) | > 100 µM (inactive) | > 100 µM |  |
| COc1ccc2nc3cc(Cl)ccc3c(Sc3ccc([N+](=O)[O-])cc3)c2c1 | > 10 µM (inactive) | > 10 µM (inactive) | > 10 µM (inactive) | > 10 µM (inactive) | > 10 µM (inactive) | > 10 µM (inactive) | > 10 µM (inactive) | > 10 µM (inactive) | > 10 µM (inactive) | > 10 µM (inactive) | > 10 µM (inactive) | > 10 µM (inactive) | > 10 µM (inactive) | > 10 µM (inactive) | > 10 µM (inactive) | > 10 µM (inactive) | > 10 µM (inactive) | > 10 µM (inactive) | > 10 µM |  |
